Reference: article PMC2865576 (Journal of medicinal chemistry, 2010)
Entries after “also recorded” stand apart in the source; their conditions may differ. Marks after values point to notes of the source that are not given here.

Experiments:
[1] = tested on: intracellular T. gondii tachyzoites in HFF monolayers; experiment: Replication assay; type: cell-based, Toxoplasma gondii; details: for Replication inhibition, result in words: added 2 h after inoculation, 24-26 h; for Parasite doublings per vacuole, dose-response experiment: separate experiments, authors' unpublished results [37]; for inhibition at 10 µM: Toxoplasma gondii, read-out: Inhibition of parasite replication
[2] = tested on: tachyzoites of T.gondii strain 2F; experiment: Five day growth inhibition assay; type: cell-based, Toxoplasma gondii; details: HFF cells
[3] = tested on: human foreskin fibroblast (HFF) host cells; type: cell-based; details: 5 days

CO[C@H]1O[C@@H]2O[C@@]3(C)CC[C@H]4[C@H](C)CC[C@@H]([C@H]1C)[C@@]24OO3 [Artemether, reference compound]
Replication inhibition, result in words ([1]; 10 μM): only modest inhibition

C[C@@H]1CC[C@H]2[C@@H](C)C(=O)O[C@@H]3O[C@@]4(C)CC[C@@H]1[C@]32OO4 [Artemisinin, reference compound]
Replication inhibition, result in words ([1]; 10 μM): no measurable activity

CC1=C(c2nc(C)cs2)O[C@@H]2O[C@@]3(C)CC[C@H]4[C@H](C)CC[C@@H]1[C@@]24OO3 [Compound 2]
Parasite doublings per vacuole, dose-response experiment ([1]; 1 μM): 2 doubling
Parasite doublings per vacuole, dose-response experiment ([1]; 5 μM): 1 doubling
Parasite doublings per vacuole, dose-response experiment ([1]; 10 μM): 1 doubling

CC1=C(c2nc(C)c(C)s2)O[C@@H]2O[C@@]3(C)CC[C@H]4[C@H](C)CC[C@@H]1[C@@]24OO3 [Compound 3]
Parasite doublings per vacuole, dose-response experiment ([1]; 1 μM): 1 doubling
Parasite doublings per vacuole, dose-response experiment ([1]; 5 μM): 1 doubling
Parasite doublings per vacuole, dose-response experiment ([1]; 10 μM): 1 doubling

CC1=C(c2ncc(C)s2)O[C@@H]2O[C@@]3(C)CC[C@H]4[C@H](C)CC[C@@H]1[C@@]24OO3 [Compound 4]
Parasite doublings per vacuole, dose-response experiment ([1]; 1 μM): 2 doubling
Parasite doublings per vacuole, dose-response experiment ([1]; 5 μM): 1 doubling
Parasite doublings per vacuole, dose-response experiment ([1]; 10 μM): 1 doubling

CC1=C(c2nc(-c3ccccc3)cs2)O[C@@H]2O[C@@]3(C)CC[C@H]4[C@H](C)CC[C@@H]1[C@@]24OO3 [Compound 5]
Parasite doublings per vacuole, dose-response experiment ([1]; 1 μM): 1 doubling
Parasite doublings per vacuole, dose-response experiment ([1]; 5 μM): 1 doubling
Parasite doublings per vacuole, dose-response experiment ([1]; 10 μM): 0.5 doubling

CC1=C(c2nc(C3CCCCC3)cs2)O[C@@H]2O[C@@]3(C)CC[C@H]4[C@H](C)CC[C@@H]1[C@@]24OO3 [Compound 8]
Growth inhibition, result in words [2]: ineffective
Replication inhibition, result in words ([1]; 10 μM): only weakly inhibited replication

CSc1ccc(-c2csc(C3=C(C)[C@@H]4CC[C@@H](C)[C@@H]5CC[C@@]6(C)OO[C@@]45[C@H](O3)O6)n2)cc1 [Compound 11]
Replication inhibition, result in words ([1]; 10 μM): completely inhibited replication

CC1=C(c2nc(-c3ccc(S(C)(=O)=O)cc3)cs2)O[C@@H]2O[C@@]3(C)CC[C@H]4[C@H](C)CC[C@@H]1[C@@]24OO3 [Compound 12]
inhibition at 10 µM [1]: 75%

CC1=C(c2nc(C)no2)O[C@@H]2O[C@@]3(C)CC[C@H]4[C@H](C)CC[C@@H]1[C@@]24OO3 [Compound 13]
inhibition at 10 µM [1]: 50%

CC1=C(c2nc(-c3ccccc3)no2)O[C@@H]2O[C@@]3(C)CC[C@H]4[C@H](C)CC[C@@H]1[C@@]24OO3 [Compound 14]
Parasite doublings per vacuole, dose-response experiment ([1]; 1 μM): 1 doubling
Parasite doublings per vacuole, dose-response experiment ([1]; 5 μM): 1 doubling
Replication inhibition, result in words ([1]; 10 μM): effectively inhibited replication
Parasite doublings per vacuole, dose-response experiment ([1]; 10 μM): 0.5 doubling
inhibition at 10 µM [1]: 75%

CCNC(=O)C1=C(C)[C@@H]2CC[C@@H](C)[C@@H]3CC[C@@]4(C)OO[C@@]23[C@H](O1)O4 [Compound 15]
inhibition at 10 µM [1]: 50%

CCN(CC)C(=O)C1=C(C)[C@@H]2CC[C@@H](C)[C@@H]3CC[C@@]4(C)OO[C@@]23[C@H](O1)O4 [Compound 16]
Growth inhibition, result in words [2]: ineffective; also recorded: activity is lost

CC1=C(C(=O)NCc2ccccc2)O[C@@H]2O[C@@]3(C)CC[C@H]4[C@H](C)CC[C@@H]1[C@@]24OO3 [Compound 18]
inhibition at 10 µM [1]: 50%

CC1=C(C(=O)NCc2ccc(F)cc2)O[C@@H]2O[C@@]3(C)CC[C@H]4[C@H](C)CC[C@@H]1[C@@]24OO3 [Compound 20]
Replication inhibition, result in words ([1]; 10 μM): effectively inhibited replication
inhibition at 10 µM [1]: 75%

CC1=C(C(=O)NCc2ccc(C)cc2)O[C@@H]2O[C@@]3(C)CC[C@H]4[C@H](C)CC[C@@H]1[C@@]24OO3 [Compound 21]
inhibition at 10 µM [1]: 50%

CC1=C(C(=O)NCc2ccc(C(F)(F)F)cc2)O[C@@H]2O[C@@]3(C)CC[C@H]4[C@H](C)CC[C@@H]1[C@@]24OO3 [Compound 22]
Replication inhibition, result in words ([1]; 10 μM): effectively inhibited replication
inhibition at 10 µM [1]: 75%

CC1=C(C(=O)NCc2ccc(F)c(F)c2)O[C@@H]2O[C@@]3(C)CC[C@H]4[C@H](C)CC[C@@H]1[C@@]24OO3 [Compound 23]
inhibition at 10 µM [1]: 50%

CC1=C(C(=O)NCc2cc(F)cc(F)c2)O[C@@H]2O[C@@]3(C)CC[C@H]4[C@H](C)CC[C@@H]1[C@@]24OO3 [Compound 24]
Growth inhibition, result in words [2]: potent parasite inhibition
inhibition at 10 µM [1]: 50%

CC1=C(C(=O)NCc2cc(Br)cc(Br)c2)O[C@@H]2O[C@@]3(C)CC[C@H]4[C@H](C)CC[C@@H]1[C@@]24OO3 [Compound 25]
Growth inhibition, result in words [2]: potent parasite inhibition
Replication inhibition, result in words ([1]; 10 μM): completely inhibited replication; also recorded: effectively inhibited replication

COc1cc(Cc2cnc(N)nc2N)cc(OC)c1OC [Trimethoprim]
TD50, median cytotoxic dose [3]: ≥320 ^b μM
